Results published in article PMC8776894 (Communications Biology, 2022).
Several values for one entry are separate records, joined by “and”; a condition that tells them apart may be missing. Identical values can stand only once.

Experiments:
Format in all cases: in vivo, mouse
[1] = system: 17 phosphorylation sites, prefrontal cortex lysate; assay: Phospho antibody microarray
Protocol: Protein phosphorylation detection was performed with a Phospho Explorer Antibody Array (Catalog number AAM-APOSIG-1-8, Ray Biotech, USA), allowing for the examination of 17 phosphorylation sites (three replicates per antibody). Whole-cell lysates from the prefrontal cortex in mice after MCAO/R and VK-treated, and the assay was performed according to the manufacturer’s protocol.

[2] = system: MCAO/R mice; assay: Evans blue extravasation, BBB permeability; parameters: EB content in damaged (right) hemisphere (Fig.4): unit not given here; settings: for EB content in damaged (right) hemisphere (Fig.4): individual animals
Protocol: Fig. 4 Protective effect of VK on the blood–brain barrier (BBB) in stroke mice. a Experimental design: in addition to the sham group, mice (8–10 weeks, male) were subjected to MCAO for 60 min. Mice were randomized into four groups: sham group, vehicle group, and VK (150 and 300 µg/kg) groups. Mice were administered VK at 0, 4, 22.5, and 46.5 h after MCAO/R and BBB integrity was assessed by Evans blue (EB) and transmission electron microscope (TEM). b Brain samples were stained with EB. c EB content in damaged (right) hemisphere was quantized. d Schematic of BBB. The BBB mainly consists of endothelial cells (EC), pericytes (PC), astrocytes (Ast), neurons, tight junctions (TJs), and the basement membranes (BM). The main components of the BBB are cerebral microvascular ECs joined by TJs, thus restricting exogenous molecules into the brain. e The structure of the BBB was observed by TEM. In the sham group (e1–3), the capillary morphology was regular, the EC and TJ were complete, the thickness of the BM was uniform and continuous around the outside of EC, and the structure of mitochondria (Mt) was clear. […] The marks with different symbols indicate the constituent cells or matrix of the BBB. Scale bars: 2 µm. Data are expressed as the mean ± SD, n = 5. Values were analyzed using one-way analysis of variance (ANOVA) with the Tukey multiple comparisons test.

[3] = system: MCAO/R mice; assay: MRI of cerebral infarction after MCAO/R; settings: VK 300 i.p. at 0, 4, 22.5, 46.5 h, T2-weighted
Protocol: After MCAO/R, mice were treated with VK ([…], i.p.) at 0, 4, 22.5, and 46.5 h. Mice were deeply anesthetized with 1.5% isoflurane in a mixture of 30% O2 and 69% N2O. The magnetic resonance imaging (MRI) experiments were performed on a horizontal bore 9.4 Tesla scanner operating on a Bruker Avance platform (Bruker 9.4 T Biospec). T2-weighted imaging was used to evaluate the infarct volume. Three mutually perpendicular images were obtained to localize the infarction site. Then, 13–15 T2-weighted axial slices (1 mm thick) covering the entire damage area (field of view = 30 × 30 mm, matrix size = 256 × 256, echo time^3 = 33 ms, repetition time[68] = 3500 ms) were acquired by a spin-echo pulse sequence to delineate anatomical details and calculate qualitative T2 maps[69].

[4] = Group2(VK 150) VS Group1(VK 300)
[5] = Group2(VK 150) VS Group3(Sham), AveExp.Group3 minus AveExp.Group2
[6] = Group4(Vehicle) VS Group1(VK 300)
[7] = Group4(Vehicle) VS Group2(VK 150)
[8] = Vehicle vs VK headed 150 mg/kg, Regulation up
[9] = Vehicle vs VK headed 300mg/kg, Regulation up

Gly-Arg-Pro-Hyp-Gly-Phe-Ser-Pro-Phe-Arg-Ile-Asp [VK, Vespakinin-M]
AKT(S473) logFC [1, 4]: 0.1681 | ATM(S1981) logFC [1, 4]: 0.4433 | BAD(S112) logFC [1, 4]: 0.1628 | CHK1 (S296) logFC [1, 4]: 0.118 | Casp3(D175) logFC [1, 4]: 0.2616 | Casp7(D198) logFC [1, 4]: 0.356 | Erk1/2(T202) logFC [1, 4]: 0.2636 | IkBa (S32) logFC [1, 4]: -0.1062 | JNK(T183) logFC [1, 4]: 0.1152 | NFKB(S536) logFC [1, 4]: 0.07606 | P27(T198) logFC [1, 4]: -0.02206 | P38(T180/Y182) logFC [1, 4]: 0.08158 | P53(S15) logFC [1, 4]: -0.02082 | SMAD2(S245) logFC [1, 4]: 0.2566 | TAK1(S412) logFC [1, 4]: 0.04657 | eIF2a (S51) logFC [1, 4]: 0.3172 | hsp27(S82) logFC [1, 4]: 0.2446 | AKT(S473) logFC [1, 5]: 0.1633 | ATM(S1981) logFC [1, 5]: 0.1496 | BAD(S112) logFC [1, 5]: 0.121 | CHK1 (S296) logFC [1, 5]: 0.2057 | Casp3(D175) logFC [1, 5]: 0.09625 | Casp7(D198) logFC [1, 5]: 0.03142 | Erk1/2(T202) logFC [1, 5]: 0.1043 | IkBa (S32) logFC [1, 5]: 0.1056 | JNK(T183) logFC [1, 5]: 0.02185 | NFKB(S536) logFC [1, 5]: -0.02812 | P27(T198) logFC [1, 5]: 0.08521 | P38(T180/Y182) logFC [1, 5]: -0.03282 | P53(S15) logFC [1, 5]: 0.03719 | SMAD2(S245) logFC [1, 5]: 0.04639 | TAK1(S412) logFC [1, 5]: 0.09444 | eIF2a (S51) logFC [1, 5]: 0.1069 | hsp27(S82) logFC [1, 5]: 0.06748 | AKT(S473) logFC ([1]; Group3(Sham) VS Group1(VK 300)): 0.3314 | ATM(S1981) logFC ([1]; Group3(Sham) VS Group1(VK 300)): 0.5929 | BAD(S112) logFC ([1]; Group3(Sham) VS Group1(VK 300)): 0.2838 | CHK1 (S296) logFC ([1]; Group3(Sham) VS Group1(VK 300)): 0.3237 | Casp3(D175) logFC ([1]; Group3(Sham) VS Group1(VK 300)): 0.3578 | Casp7(D198) logFC ([1]; Group3(Sham) VS Group1(VK 300)): 0.3874 | Erk1/2(T202) logFC ([1]; Group3(Sham) VS Group1(VK 300)): 0.3679 | IkBa (S32) logFC ([1]; Group3(Sham) VS Group1(VK 300)): -0.0006282 | JNK(T183) logFC ([1]; Group3(Sham) VS Group1(VK 300)): 0.137 | NFKB(S536) logFC ([1]; Group3(Sham) VS Group1(VK 300)): 0.04795 | P27(T198) logFC ([1]; Group3(Sham) VS Group1(VK 300)): 0.06315 | P38(T180/Y182) logFC ([1]; Group3(Sham) VS Group1(VK 300)): 0.04876 | P53(S15) logFC ([1]; Group3(Sham) VS Group1(VK 300)): 0.01637 | SMAD2(S245) logFC ([1]; Group3(Sham) VS Group1(VK 300)): 0.303 | TAK1(S412) logFC ([1]; Group3(Sham) VS Group1(VK 300)): 0.141 | eIF2a (S51) logFC ([1]; Group3(Sham) VS Group1(VK 300)): 0.4241 | hsp27(S82) logFC ([1]; Group3(Sham) VS Group1(VK 300)): 0.3121 | CHK1 (S296) logFC [1, 6]: 0.6052 | Casp7(D198) logFC [1, 6]: 0.6994 | Erk1/2(T202) logFC [1, 6]: 0.4686 | IkBa (S32) logFC [1, 6]: 0.671 | JNK(T183) logFC [1, 6]: 0.4121 | NFKB(S536) logFC [1, 6]: 0.4222 | P38(T180/Y182) logFC [1, 6]: 0.4307 | hsp27(S82) logFC [1, 6]: 0.386 | logFC AKT(S473) [1, 6]: 0.1073 | logFC ATM(S1981) [1, 6]: 0.3928 | logFC BAD(S112) [1, 6]: 0.3454 | logFC Casp3(D175) [1, 6]: 0.3417 | logFC P27(T198) [1, 6]: 0.1337 | logFC P53(S15) [1, 6]: 0.1112 | logFC SMAD2(S245) [1, 6]: 0.1323 | logFC TAK1(S412) [1, 6]: 0.1801 | logFC eIF2a (S51) [1, 6]: 0.3444 | logFC AKT(S473) [1, 7]: -0.06086 | logFC ATM(S1981) [1, 7]: -0.05046 | logFC BAD(S112) [1, 7]: 0.1826 | logFC CHK1 (S296) [1, 7]: 0.4872 | logFC Casp3(D175) [1, 7]: 0.08018 | logFC Casp7(D198) [1, 7]: 0.3435 | logFC Erk1/2(T202) [1, 7]: 0.205 | logFC IkBa (S32) [1, 7]: 0.7772 | logFC JNK(T183) [1, 7]: 0.2969 | logFC NFKB(S536) [1, 7]: 0.3462 | logFC P27(T198) [1, 7]: 0.1557 | logFC P38(T180/Y182) [1, 7]: 0.3491 | logFC P53(S15) [1, 7]: 0.132 | logFC SMAD2(S245) [1, 7]: -0.1242 | logFC TAK1(S412) [1, 7]: 0.1335 | logFC eIF2a (S51) [1, 7]: 0.02722 | logFC hsp27(S82) [1, 7]: 0.1414 | levels of IκBa (S32), CHK1 (S296), NF-κB (S536), p38 (T180/Y182), Casp7 (D198), JNK(T183) vs vehicle ([1]; VK 150 µg/kg, MCAO/R mice): clearly decreased levels | NFκB(S536) AveExp. Group2 ([1]; VK group headed 150 mg/kg): 11 | IκBa (S32) AveExp. Group2 ([1]; VK group headed 150 mg/kg (text 150 µg/kg)): 10.95 | NFκB(S536) AveExp. Group1 ([1]; VK group headed 300mg/kg): 10.93 | IκBa (S32) AveExp. Group1 ([1]; VK group headed 300mg/kg (text 300 µg/kg)): 11.05 | IκBa (S32) logFC ([1]; Vehicle (Group4) vs VK headed 150 mg/kg, Regulation up): 0.7772 | IκBa (S32) logFC ([1]; Vehicle (Group4) vs VK headed 300mg/kg, Regulation up): 0.671 | Casp7(D198) logFC [1, 8]: 0.3435 | JNK(T183) logFC [1, 8]: 0.2969 | NFκB(S536) logFC [1, 8]: 0.3462 | ATM(S1981) logFC [1, 9]: 0.3928 | BAD(S112) logFC [1, 9]: 0.3454 | CHK1 (S296) logFC [1, 9]: 0.6052 | Casp3(D175) logFC [1, 9]: 0.3417 | Casp7(D198) logFC [1, 9]: 0.6994 | Erk1/2(T202) logFC [1, 9]: 0.4686 | JNK(T183) logFC [1, 9]: 0.4121 | NFκB(S536) logFC [1, 9]: 0.4222 | P38(T180/Y182) logFC [1, 9]: 0.4307 | eIF2a (S51) logFC [1, 9]: 0.3444 | hsp27(S82) logFC [1, 9]: 0.386 | EB content in damaged (right) hemisphere (Fig.4) ([2]; VK 150 µg/kg i.p.): 0.6116 and 3.907 and 2.036 and 0.849 and 0.3932 | EB content in damaged (right) hemisphere (Fig.4) ([2]; VK 300 µg/kg i.p.): 0.754 and 0.4027 and 0.5261 and 1.381 and 3.67 | BBB permeability, EB extravasation ([2]; VK 150 and 300 µg/kg): reversed the effect of MCAO-induced on BBB permeability | area of cerebral infarction, MRI [3]: reduced the area of cerebral infarction
